Experimental data as given in patent US20230226008A1 (Massachusetts Eye and Ear Infirmary, priority 2020, published 2023).

Key:
[1] = system: organotypic nasal polyp explants
P-gp = P-gp (Homo sapiens, UniProt P08183); conditions: literature reference 29; cited from earlier work
P-gp, sequence (P08183 whole entry): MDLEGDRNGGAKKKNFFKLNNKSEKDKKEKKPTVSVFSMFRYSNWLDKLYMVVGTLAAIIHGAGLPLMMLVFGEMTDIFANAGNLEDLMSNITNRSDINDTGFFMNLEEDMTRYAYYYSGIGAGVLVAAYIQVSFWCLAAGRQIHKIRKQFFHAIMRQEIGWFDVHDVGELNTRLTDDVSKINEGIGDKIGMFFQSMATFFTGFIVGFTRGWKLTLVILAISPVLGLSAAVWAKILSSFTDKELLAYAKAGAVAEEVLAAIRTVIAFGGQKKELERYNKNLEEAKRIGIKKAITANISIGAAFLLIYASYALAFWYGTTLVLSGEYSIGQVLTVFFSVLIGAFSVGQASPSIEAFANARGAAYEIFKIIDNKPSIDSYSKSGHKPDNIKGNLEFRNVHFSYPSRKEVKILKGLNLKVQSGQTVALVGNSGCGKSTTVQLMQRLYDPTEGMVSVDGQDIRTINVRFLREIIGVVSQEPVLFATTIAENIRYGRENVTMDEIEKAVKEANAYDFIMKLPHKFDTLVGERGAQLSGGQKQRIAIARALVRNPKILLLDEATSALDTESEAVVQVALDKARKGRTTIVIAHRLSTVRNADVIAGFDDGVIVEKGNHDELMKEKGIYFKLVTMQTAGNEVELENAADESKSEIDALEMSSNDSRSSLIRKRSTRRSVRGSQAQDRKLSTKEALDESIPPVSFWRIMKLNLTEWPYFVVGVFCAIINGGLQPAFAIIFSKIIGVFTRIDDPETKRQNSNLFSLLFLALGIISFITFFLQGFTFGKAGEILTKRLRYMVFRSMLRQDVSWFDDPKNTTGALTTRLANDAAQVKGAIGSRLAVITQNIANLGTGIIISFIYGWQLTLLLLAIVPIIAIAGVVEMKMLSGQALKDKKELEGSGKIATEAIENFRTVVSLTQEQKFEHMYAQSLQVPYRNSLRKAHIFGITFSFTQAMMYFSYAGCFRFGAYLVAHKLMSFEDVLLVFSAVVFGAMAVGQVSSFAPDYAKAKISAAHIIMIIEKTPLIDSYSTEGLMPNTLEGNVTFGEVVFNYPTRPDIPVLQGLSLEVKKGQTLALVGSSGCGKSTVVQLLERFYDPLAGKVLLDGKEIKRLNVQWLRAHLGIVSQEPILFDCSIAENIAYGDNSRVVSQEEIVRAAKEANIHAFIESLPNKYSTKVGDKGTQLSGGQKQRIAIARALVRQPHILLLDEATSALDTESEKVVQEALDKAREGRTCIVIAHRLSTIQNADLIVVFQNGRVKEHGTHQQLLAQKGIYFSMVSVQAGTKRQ

tissue mometasone retention in polyps versus lower P-gp expressing turbinates [1]	reduction in mometasone retention between the lowest and highest P-gp expressing polyp explants ([1]; human, not told, 60 min) [fold]	P-gp substrate status ([1]; not told)	Structure (SMILES)	affinity for P-gp (P-gp)
significantly lower	~6	substrate of P-gp	C[C@@H]1C[C@H]2[C@@H]3CCC4=CC(=O)C=C[C@]4(C)[C@@]3(Cl)[C@@H](O)C[C@]2(C)[C@@]1(OC(=O)c1ccco1)C(=O)CCl [mometasone, [(8S,9R,10S,11S,13S,14S,16R,17R)-9-chloro-17-(2-chloroacetyl)-11-hydroxy-10,13,16-trimethyl-3-oxo-6,7,8,11,12,14,15,16-octahydrocyclopenta[a]phenanthren-17-yl]furan-2-carboxylate]	–
–	–	–	CCCC1O[C@@H]2C[C@H]3[C@@H]4CCC5=CC(=O)C=C[C@]5(C)[C@H]4[C@@H](O)C[C@]3(C)[C@]2(C(=O)CO)O1 (stereo partly shown) [budesonide]	high affinity
